Data on 30 molecules can be found in patent publication US8686150B2 (Sanofi, priority 2011, dated 2014).

T1 sequence (P05771 1-673 isoform P05771-2): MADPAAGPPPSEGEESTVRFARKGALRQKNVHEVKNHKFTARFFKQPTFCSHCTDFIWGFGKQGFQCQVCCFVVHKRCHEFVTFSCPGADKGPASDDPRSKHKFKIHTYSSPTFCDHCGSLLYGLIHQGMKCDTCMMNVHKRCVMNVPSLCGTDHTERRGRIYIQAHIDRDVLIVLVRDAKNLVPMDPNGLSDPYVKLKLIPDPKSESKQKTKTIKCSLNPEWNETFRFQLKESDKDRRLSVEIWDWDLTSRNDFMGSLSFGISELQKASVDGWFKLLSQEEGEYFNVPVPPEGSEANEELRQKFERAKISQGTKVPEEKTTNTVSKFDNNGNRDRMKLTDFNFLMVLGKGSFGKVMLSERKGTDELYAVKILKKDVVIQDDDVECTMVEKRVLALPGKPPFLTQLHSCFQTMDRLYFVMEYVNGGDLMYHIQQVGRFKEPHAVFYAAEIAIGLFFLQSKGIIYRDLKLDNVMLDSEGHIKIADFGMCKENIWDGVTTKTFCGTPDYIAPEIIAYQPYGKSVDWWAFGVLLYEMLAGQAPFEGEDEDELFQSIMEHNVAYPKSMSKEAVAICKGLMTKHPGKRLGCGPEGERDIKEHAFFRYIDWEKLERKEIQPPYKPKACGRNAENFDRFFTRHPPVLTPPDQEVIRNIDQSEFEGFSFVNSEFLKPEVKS

The assay has as its target T1, human full-length recombinant PKC βII (Homo sapiens, UniProt P05771).
T1 construct: Active human full-length recombinant PKC βII; purchased Invitrogen GmbH, Darmstadt, Germany
The assay is described as follows: Determination of PKC βII inhibition (Caliper mobility-shift kinase assay, Fluorescein-RFARKGSLRQKNV peptide substrate). Type of assay: biochemical. The settings on record: example compounds at a final concentration of 1.14 μM (±0.15 μM). A digest of the protocol:
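Full-length PKC βII (30 ng/ml in pre-dilution) with PS/DAG/Ca2+ activators, pH 7.4; fluorescein peptide and ATP at 3 μM and 120 μM before mixing. Reaction ran 60 min at 32 °C, was EDTA-stopped, and was read by mobility shift. % inhibition came from product/(substrate+product) peak heights, tested at 1.14 μM final.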
For the molecule `Cc1n[nH]c2nc(-c3ccc(O)cc3)cc(C(=O)N3CCNCC3c3ccc4c(c3)OCO4)c12` (stereo not drawn) [Example 32, (2-Benzo[1,3]dioxol-5-yl-piperazin-yl)-[6-(4-hydroxy-phenyl)-3-methyl-1H-pyrazolo[3,4-b]pyridin-4-yl]-methanone], the inhibition at 1.14 µM stood at 98%.

With `CC(=O)N1CCC(NC(=O)c2cc(-c3ccc(O)cc3)nc3[nH]nc(C)c23)CC1` [Example 277, 6-(4-Hydroxy-phenyl)-3-methyl-1H-pyrazolo[3,4-b]pyridine-4-carboxylic acid (1-acetyl-piperidin-4-yl)-amide], the inhibition at 1.14 µM came out at 35%.

For `Cc1cc(O)ccc1-c1cc(C(=O)N2CC(C)(C)NCC2(C)C)c2c(C)n[nH]c2n1` [Example 155, [6-(4-Hydroxy-2-methyl-phenyl)-3-methyl-1H-pyrazolo[3,4-b]pyridin-4-yl]-(2,2,5,5-tetramethyl-piperazin-1-yl)-methanone], the inhibition at 1.14 µM is 88%.

As for `Cc1n[nH]c2nc(-c3ccc(O)cc3)cc(C(=O)N3CCNCC3c3ccc(C(C)C)cc3)c12` (stereo not drawn) [Example 94, [6-(4-Hydroxy-phenyl)-3-methyl-1H-pyrazolo[3,4-b]pyridin-4-yl]-[2-(4-isopropyl-phenyl)-piperazin-1-yl]-methanone], the inhibition at 1.14 µM was found to be 90%.

With `Cc1n[nH]c2nc(-c3ccc(O)cc3)cc(C(=O)NCC3(N)CCCCCC3)c12` [Example 116, 6-(4-Hydroxy-phenyl)-3-methyl-1H-pyrazolo[3,4-b]pyridine-4-carboxylic acid (1-amino-cycloheptylmethyl)-amide], the inhibition at 1.14 µM was determined as 76%.

For the molecule `Cc1n[nH]c2nc(-c3ccc(O)c(F)c3)cc(C(=O)N3CCC4(CC3)CNC4)c12` [Example 329, (2,7-Diaza-spiro[3.5]non-7-yl)-[6-(3-fluoro-4-hydroxy-phenyl)-3-methyl-1H-pyrazolo[3,4-b]pyridin-4-yl]-methanone], the inhibition at 1.14 µM is 72%.

Turning to `Cc1n[nH]c2nc(-c3ccc(O)cc3)cc(C(=O)N3C[C@@H](C)N[C@@H](C)C3)c12` [Example 24, ((3R,5S)-3,5-Dimethyl-piperazin-1-yl)-[6-(4-hydroxy-phenyl)-3-methyl-1H-pyrazolo[3,4-b]pyridin-4-yl]-methanone], the inhibition at 1.14 µM turned out to be 95%.

Take `CC[C@@H]1CN(C(=O)c2cc(-c3ccc(O)cc3F)nc3[nH]nc(C)c23)[C@@H](C)CN1` [Example 446, ((2S,5R)-5-Ethyl-2-methyl-piperazin-1-yl)-[6-(2-fluoro-4-hydroxy-phenyl)-3-methyl-1H-pyrazolo[3,4-b]pyridin-4-yl)-methanone]: the inhibition at 1.14 µM turned out to be 98%.

With `CC(=O)N1CCN(C(=O)c2cc(-c3ccc(O)c(F)c3)nc3[nH]nc(C)c23)CC1` [Example 356, 1-{4-[6-(3-Fluoro-4-hydroxy-phenyl)-3-methyl-1H-pyrazolo[3,4-b]pyridine-4-carbonyl]-piperazin-1-yl}-ethanone], the inhibition at 1.14 µM is 31%.

As to `Cc1n[nH]c2nc(-c3ccc(O)cc3)cc(C(=O)N3C[C@H]4CNC[C@H]4C3)c12` [Example 250, (3aR,6aS)-Hexahydro-pyrrolo[3,4-c]pyrrol-2-yl-[6-(4-hydroxy-phenyl)-3-methyl-1H-pyrazolo[3,4-b]pyridin-4-yl]-methanone], the inhibition at 1.14 µM stood at 85%.

As to `COC(=O)C1(N)CCN(C(=O)c2cc(-c3ccc(O)cc3)nc3[nH]nc(C)c23)CC1` [Example 283, 4-Amino-1-[6-(4-hydroxy-phenyl)-3-methyl-1H-pyrazolo[3,4-b]pyridine-4-carbonyl]-piperidine-4-carboxylic acid methyl ester], the inhibition at 1.14 µM is 45%.

For `O=C(c1cc(-c2ccc(O)cc2)nc2[nH]nc(C(F)(F)F)c12)N1CCC2(CCNCC2)C1` [Example 409, (2,8-Diaza-spiro[4.5]dec-2-yl)-[6-(4-hydroxy-phenyl)-3-trifluoromethyl-1H-pyrazolo[3,4-b]pyridin-4-yl]-methanone], the inhibition at 1.14 µM is 23%.

Take `Cc1n[nH]c2nc(-c3ccc(O)cc3)cc(C(=O)N3CCNC[C@@H]3C(C)C)c12` [Example 202, [6-(4-Hydroxy-phenyl)-3-methyl-1H-pyrazolo[3,4-b]pyridin-4-yl]-((S)-2-isopropyl-piperazin-1-yl)-methanone]: the inhibition at 1.14 µM is 101%.

In the case of `O=C(c1cc(-c2ccc(O)cc2)nc2[nH]nc(C(F)(F)F)c12)N1CC2CNCC2C1` (stereo not drawn) [Example 400, (Hexahydro-pyrrolo[3,4-c]pyrrol-2-yl)-[6-(4-hydroxy-phenyl)-3-trifluoromethyl-1H-pyrazolo[3,4-b]pyridin-4-yl]-methanone], the inhibition at 1.14 µM is 62%.

For `Cc1n[nH]c2nc(-c3ccc(O)c(F)c3)cc(C(=O)N[C@@H]3CCCNC3)c12` [Example 305, 6-(3-Fluoro-4-hydroxy-phenyl)-3-methyl-1H-pyrazolo[3,4-b]pyridine-4-carboxylic acid (R)-piperidin-3-ylamide], the inhibition at 1.14 µM turned out to be 83%.

`Cc1n[nH]c2nc(-c3ccc(O)cc3)cc(C(=O)N3CCNC(c4ccccc4)C3)c12` (single isomer, unassigned) [Example 456, [6-(4-Hydroxy-phenyl)-3-methyl-1H-pyrazolo[3,4-b]pyridin-4-yl]-(3-phenyl-piperazin-1-yl)-methanone]: the “% Inhibition” value came to 88%.

As for `Cc1n[nH]c2nc(-c3ccc(O)cc3)cc(C(=O)NC[C@H]3CC[C@H](N)CC3)c12` [Example 130, 6-(4-Hydroxy-phenyl)-3-methyl-1H-pyrazolo[3,4-b]pyridine-4-carboxylic acid (trans-4-amino-cyclohexylmethyl)-amide], the inhibition at 1.14 µM came to 47%.

Take `Cc1n[nH]c2nc(-c3ccc(O)cc3)cc(C(=O)N3CCC(CN4CCCCC4)CC3)c12` [Example 287, [6-(4-Hydroxy-phenyl)-3-methyl-1H-pyrazolo[3,4-b]pyridin-4-yl]-(4-piperidin-1-ylmethyl-piperidin-1-yl)-methanone]: the inhibition at 1.14 µM was 34%.

Take `Cc1n[nH]c2nc(-c3ccc(O)cc3)cc(C(=O)N3CCNC(C)(C)C3)c12` [Example 198, (3,3-Dimethyl-piperazin-1-yl)-[6-(4-hydroxy-phenyl)-3-methyl-1H-pyrazolo[3,4-b]pyridin-4-yl]-methanone]: the inhibition at 1.14 µM worked out at 99%.

With `Cc1n[nH]c2nc(-c3ccc(O)c(F)c3)cc(C(=O)N3CCNCC3c3cccnc3)c12` (stereo not drawn) [Example 327, [6-(3-Fluoro-4-hydroxy-phenyl)-3-methyl-1H-pyrazolo[3,4-b]pyridin-4-yl]-(2-pyridin-3-yl-piperazin-1-yl)-methanone], the inhibition at 1.14 µM amounted to 92%.

Consider `CNCCCNC(=O)c1cc(-c2ccc(O)cc2)nc2[nH]nc(C)c12` [Example 244, 6-(4-Hydroxy-phenyl)-3-methyl-1H-pyrazolo[3,4-b]pyridine-4-carboxylic acid (3-methylamino-propyl)-amide], for which the inhibition at 1.14 µM is 76%.

Regarding `Cc1n[nH]c2nc(-c3ccc(O)cc3)cc(C(=O)NCCN3CCC(c4ccccc4)C3)c12` (stereo not drawn) [Example 388, 6-(4-Hydroxy-phenyl)-3-methyl-1H-pyrazolo[3,4-b]pyridine-4-carboxylic acid [2-(3-phenyl-pyrrolidin-1-yl)-ethyl]-amide], the inhibition at 1.14 µM worked out at 54%.

Take `Cc1n[nH]c2nc(-c3ccc(O)cc3)cc(C(=O)N3CCN(C4CCC4)CC3)c12` [Example 39, (4-Cyclobutyl-piperazin-1-yl)-[6-(4-hydroxy-phenyl)-3-methyl-1H-pyrazolo[3,4-b]pyridin-4-yl]-methanone]: the inhibition at 1.14 µM worked out at 45%.

Regarding `O=C(c1cc(-c2ccc(O)cc2)nc2[nH]nc(C(F)(F)F)c12)N1CCNCC1` [Example 5, [6-(4-Hydroxy-phenyl)-3-trifluoromethyl-1H-pyrazolo[3,4-b]pyridin-4-yl]-piperazin-1-yl-methanone], the inhibition at 1.14 µM worked out at 74%.

For the molecule `Cc1n[nH]c2nc(-c3ccc(O)cc3)cc(C(=O)N3CCC4(CCNCC4)CC3)c12` [Example 236, (3,9-Diaza-spiro[5.5]undec-3-yl)-[6-(4-hydroxy-phenyl)-3-methyl-1H-pyrazolo[3,4-b]pyridin-4-yl]-methanone], the inhibition at 1.14 µM turned out to be 84%.

In the case of `CCc1n[nH]c2nc(-c3ccc(O)cc3)cc(C(=O)N3CC4(CCNCC4)C3)c12` [Example 169, (2,7-Diaza-spiro[3.5]non-2-yl)-[3-ethyl-6-(4-hydroxy-phenyl)-1H-pyrazolo[3,4-b]pyridin-4-yl]-methanone], the inhibition at 1.14 µM came to 84%.

On to `O=C(NC1CNC1)c1cc(-c2ccc(O)cc2)nc2[nH]nc(C(F)(F)F)c12` [Example 402, 6-(4-Hydroxy-phenyl)-3-trifluoromethyl-1H-pyrazolo[3,4-b]pyridine-4-carboxylic acid azetidin-3-ylamide], for which the inhibition at 1.14 µM is 41%.

Regarding `Cc1n[nH]c2nc(-c3ccc(O)cc3)cc(C(=O)N3C[C@@H](C)NC[C@@H]3C)c12` [Example 112, ((2S,5R)-2,5-Dimethyl-piperazin-1-yl)-[6-(4-hydroxy-phenyl)-3-methyl-1H-pyrazolo[3,4-b]pyridin-4-yl]-methanone], the inhibition at 1.14 µM came out at 92%.

On to `Cc1n[nH]c2nc(-c3ccc(O)cc3)cc(C(=O)N3CCC4(CC3)CNCCO4)c12` [Example 259, [6-(4-Hydroxy-phenyl)-3-methyl-1H-pyrazolo[3,4-b]pyridin-4-yl]-(1-oxa-4,9-diaza-spiro[5.5]undec-9-yl)-methanone], for which the inhibition at 1.14 µM turned out to be 29%.

Consider `Cc1n[nH]c2nc(-c3ccc(O)cc3F)cc(C(=O)N3CCN[C@H]4CCCC[C@@H]43)c12` [Example 443, [6-(2-Fluoro-4-hydroxy-phenyl)-3-methyl-1H-pyrazolo[3,4-b]pyridin-4-yl]-(4aS,8aS)-octahydro-quinoxalin-1-yl-methanone], for which the inhibition at 1.14 µM came to 97%.

As a reminder, the inhibition is the change of the read-out against control, counted positive when it falls. By % Inhibition is commonly meant the share of the control response that was lost under treatment.
